# Where “and” joins values, the source holds several entries; their conditions need not be identical. Equal entries are not always repeated. Where two headings read alike, the source gives them in different places.
# Key:
# [1] = biological target: dog PDE3A recombinant enzyme (Canis lupus familiaris, UniProt A0A8I3NYE0); assay: cPDE3A assay (fluorescent polarization); format: biochemical; settings: canine PDE3A, read-out: cPDE3 Inhibition (IC50)
# Experimental: cPDE3A Assay (Fluorescent Polarization)
# The canine PDE3A assay kit was purchased from BPS Bioscience (San Diego, CA) which included dog PDE3A recombinant enzyme, FAM-cyclic-3′,5′-AMP (20 μM), PDE3 assay buffer, binding agent, binding agent diluent and microtiter 96-well plates. Compounds were initially dissolved in DMSO. The stock concentration was subsequently diluted in cPDE assay buffer (10× stock) and serially diluted to give a concentration response curve starting at 10 μM (≥7 total concentrations). Following the serial dilution, compound solution (0.1% final DMSO) was transferred to an assay plate (96-well) where the remaining canine PDE3A assay reagents were dispensed according to the BPS Bioscience® protocol (catalog #79735) procedure using a final concentration of 5 pg/μL of enzyme. Each compound was evaluated for the inhibition of the canine PDE3A enzyme activity using the measurement of fluorescent polarization changes. The 50% inhibition concentration (IC50) nM was calculated and reported.
# [2] = tested on: human iCell cardiomyocytes; assay: Human iPS cardiomyocyte contractility assay; format: cell-based; settings: human cardiomyocytes chronically paced (2 Hz)
# Experimental: Human iPS Cardiomyocyte Contractility Assay
# Frozen human iCell® cardiomyocytes (FujiFilm® Cellular Dynamics Inc.) were thawed and plated in the center of each well of an Axion® Biosystems cytoview 24-well microelectrode array plate that was coated with human fibronectin in a 5-6 μL droplet at a density of 7-10×10^6 cells/mL. The cells were maintained in culture in a 37° C. humidified incubator at 5% CO2. After at least seven days in culture with maintenance media changes every 2-3 days, the cells were paced at 2 Hz for approximately 48 hours on the Axion® Biosystems Maestro Pro instrument using the field potential application in the Axis Navigator software before returning to the spontaneous beating for at least 10 minutes in the contractility application (i.e., Axion® Biosystems procedure for Positive Inotropy Protocol). […] Readings were taken at 3, 13, 23, 33, 43 and 53 minutes. […] Each compound was evaluated for the contractility response relative to the vehicle control (DMSO). […]
# Myocardial contractility represents the innate ability of the heart muscle to contract. […] Cardiomyocyte contractibility of the compounds of the invention, as defined by changes in mean % delta beat amplitude, were determined to have a positive inotropic effect (i.e., a stronger cardiac muscle contraction force).
# [3] = Dog plasma half-life after oral dose; format: in vivo; settings: Beagle dogs, plasma over 72 hours, read-out: t½ (hrs), Dog Plasma Compound Half-life (converted)
# Experimental: Lastly, plasma half-life was assessed for a number of compounds in dogs. Beagle dogs were given an oral dose (0.1 mg/kg) of the respective compound accounting for a dose amount of about 1 mg/dog. Pimopendan was administered at a 0.3 mg/kg dose.
# NT-proBNP = NT-proBNP circulating biomarker reduction; format: in vivo, canine; settings: for reduced NT-proBNP levels: over a 12 hour period
# Experimental: NT-proBNP is a standard circulating biomarker of canine MMVD secreted by ventricular cardiomyocytes in response to stretching from volume or pressure overload. It is a well-defined diagnostic and prognostic biological indicator of myocardial wall stress and can be used as a biomarker for acute changes in left ventricular loading conditions. […] In one instance, Example #26 had reduced NT-proBNP levels by 49% and 62% at doses of 0.03 and 0.1 mg/kg, respectively, over a 12 hour period.
# PDE3 = settings: JMC Vol. 35, 1992; cited from earlier work
# [4] = orally administered; cited from earlier work
# [5] = tested on: adult human primary ventricular cardiomyocytes; assay: contractility amplitude (CA) assay; format: cell-based; settings: for Contractility amplitude: vehicle 100, 1 Hz
# Experimental: Further, Example #57 (30 μM) was tested in a contractility amplitude (CA) assay using adult human primary ventricular cardiomyocytes dissociated from human donor hearts to determine the potential of the compound to exert its positive inotropic effect by a single (Ca^2+ sensitization or inhibition of PDE3) or dual (Ca^2+ sensitization and inhibition of PDE3) mechanism of action. Cardiomyocytes were incubated at 35° C. under continuous perfusion (2 mL/minute) in a buffer (vehicle) solution (HEPES (10 mM), NaCl (145 mM), KCl (4 mM), MgCl2 1 mM), CaCl2) (1.8 mM) and dextrose (11.1 mM)) plus 0.1% DMSO). Cells were equilibrated for a minimum of 5 minutes and stimulated with 1.0 Hz with a 1.5× stimulation intensity. A 100 μM IBMX (3-isobutyl-1-methylxanthine) non-selective inhibitor of PDE was used. Treatment time and stimulation was 300 seconds at 1.0 Hz. Data was collected using MyoBLAZER™ (v 2.9.2) software. Equilibrated cells (n=12) were stimulated with supra-threshold voltage at 1 Hz pacing frequency (bipolar pulse of 3 ms duration). Starting at 1 V, the amplitude of the stimulating pulse was increased until the cardiomyocytes started generating contraction-relaxation cycles. Contractility amplitude was calculated from the average of the last 20 contractility transients. Contractility amplitude for vehicle, IBMX and IBMX with Example #57 was 100, 136.8 and 267.6, respectively. […] IBMX increased CA by inhibiting PDE, however, there was an even larger increase in CA in the presence of Ex #57. Additionally, the CA assay was used to assess the potential of Ex #57 to exert a shift in the calcium concentration EC50. […] From this second CA study, contractility of the myocytes was dose dependent on calcium concentration. Contractility at 100 μM, 1000 μM and 10,000 μM CaCl2 was 3.11, 56.31 and 228.61, respectively. With the addition of 30 μM Ex #57, respective contractility values increased to 40.17, 182.67 and 284.27.
# calcium sensitization = settings: JMC Vol. 35, 1992; cited from earlier work
# dog PDE3A recombinant enzyme, sequence (A0A8I3NYE0 1-1135): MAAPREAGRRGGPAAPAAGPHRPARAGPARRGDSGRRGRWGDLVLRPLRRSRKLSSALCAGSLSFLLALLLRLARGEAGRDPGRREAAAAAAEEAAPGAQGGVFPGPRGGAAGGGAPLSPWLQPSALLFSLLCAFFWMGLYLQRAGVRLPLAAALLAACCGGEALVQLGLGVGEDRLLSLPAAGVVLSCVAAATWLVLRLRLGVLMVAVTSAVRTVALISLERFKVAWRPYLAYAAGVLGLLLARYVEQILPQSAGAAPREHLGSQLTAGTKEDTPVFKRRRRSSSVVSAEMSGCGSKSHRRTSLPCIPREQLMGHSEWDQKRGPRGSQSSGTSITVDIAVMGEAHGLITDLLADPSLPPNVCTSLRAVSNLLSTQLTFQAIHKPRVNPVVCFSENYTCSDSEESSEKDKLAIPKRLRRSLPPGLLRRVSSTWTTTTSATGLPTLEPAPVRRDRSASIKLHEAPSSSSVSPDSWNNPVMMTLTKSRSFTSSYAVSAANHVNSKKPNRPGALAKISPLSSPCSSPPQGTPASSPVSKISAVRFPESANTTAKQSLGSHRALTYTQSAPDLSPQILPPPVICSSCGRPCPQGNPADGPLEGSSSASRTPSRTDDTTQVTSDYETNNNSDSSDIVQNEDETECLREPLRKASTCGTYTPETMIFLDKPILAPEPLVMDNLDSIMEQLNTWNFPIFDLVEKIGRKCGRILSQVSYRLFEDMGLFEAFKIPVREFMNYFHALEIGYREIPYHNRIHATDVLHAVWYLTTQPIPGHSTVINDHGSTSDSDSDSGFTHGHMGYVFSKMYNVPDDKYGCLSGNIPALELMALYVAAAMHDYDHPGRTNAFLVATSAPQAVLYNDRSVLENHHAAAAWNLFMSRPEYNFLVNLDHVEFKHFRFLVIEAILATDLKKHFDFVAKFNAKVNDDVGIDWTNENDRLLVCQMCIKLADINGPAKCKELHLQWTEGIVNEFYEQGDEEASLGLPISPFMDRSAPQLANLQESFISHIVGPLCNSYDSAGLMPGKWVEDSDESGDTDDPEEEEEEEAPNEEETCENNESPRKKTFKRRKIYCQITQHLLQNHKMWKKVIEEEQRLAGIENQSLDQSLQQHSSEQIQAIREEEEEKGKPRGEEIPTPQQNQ
Compound,IC50 [1],half-life ([3]; oral dose 0.1 mg/kg) [h],further results
"COc1ccc(-c2nc3ccc(C4=NNC(=O)CC4C)cc3[nH]2)cc1 (racemic) [pimobendan, 6-(2-(4-methoxyphenyl)-1H-benzo[d]imidazol-6-yl)-5-methyl-4,5-dihydropyridazin-3 (2H)-one]",~1530 nM and 1530 nM,,"contractility of cardiomyocytes (changes in mean % delta beat amplitude) [2]: dose dependently increases contractility; half-life ([3]; oral, 0.3 mg/kg dose): 0.4 h; decrease in NT-proBNP (NT-proBNP; labeled dose, 24 hours post dose): 41%; IC50 (PDE3): 560 nM; bioavailability [4]: 60-65%; elimination half-life [4]: ~1.6 h; tmax [4]: about 2 hours"
"Cc1cc(C2=NNC(=O)SC2C)cc2c1NC(=O)CCC2 (stereo not drawn) [Example #73, 6-methyl-5-(9-methyl-2-oxo-2,3,4,5-tetrahydro-1H-benzo[b]azepin-7-yl)-3,6-dihydro-2H-1,3,4-thiadiazin-2-one]",4.9 nM,7.5,
"CC1SC(=O)NN=C1c1cc(F)c2c(c1)C(C)(C)C(=O)N2 (stereo not drawn) [Example #74, 5-(7-fluoro-3,3-dimethyl-2-oxoindolin-5-yl)-6-methyl-3,6-dihydro-2H-1,3,4-thiadiazin-2-one]",13.3 nM,55,
"CC1SC(=O)NN=C1c1cc(Cl)c2c(c1)C(C)(C)C(=O)N2 (stereo not drawn) [Example #75, 5-(7-chloro-3,3-dimethyl-2-oxoindolin-5-yl)-6-methyl-3,6-dihydro-2H-1,3,4-thiadiazin-2-one]",9.7 nM,50,
"CC1SC(=O)NN=C1c1cc(Br)c2c(c1)C(C)(C)C(=O)N2 (stereo not drawn) [Example #76, 5-(7-bromo-3,3-dimethyl-2-oxoindolin-5-yl)-6-methyl-3,6-dihydro-2H-1,3,4-thiadiazin-2-one]",15.2 nM,40,
"CC(C)Cn1c(=O)n(C)c(=O)c2[nH]cnc21 [IBMX, 3-isobutyl-1-methylxanthine, reference compound]",,,Contractility amplitude ([5]; 100 μM IBMX alone): 136.8
CC1(C)C(=O)Nc2ccc(C3=NNC(=O)CC3)cc21 [indolidan],,,IC50 (PDE3): 520 nM; calcium-sensitizing properties (calcium sensitization): lacked calcium-sensitizing properties

# Further molecules by falling IC50 [1], results first:
IC50 [1],half-life ([3]; oral dose 0.1 mg/kg) [h],Compound,further results
118 nM,12,"CC1SC(=O)NN=C1c1cc(-c2cscn2)c2c(c1)C(C)(C)C(=O)N2 (stereo not drawn) [Example #68, 5-(3,3-dimethyl-2-oxo-7-(thiazol-4-yl)indolin-5-yl)-6-methyl-3,6-dihydro-2H-1,3,4-thiadiazin-2-one]",
115 nM,96,"CC1(C)C(=O)Nc2c(Cl)cc(-c3cncnc3)cc21 [Example #86, 7-chloro-3,3-dimethyl-5-(pyrimidin-5-yl)indolin-2-one]",
90.4 nM,5.4,"CC1SC(=O)NN=C1c1cc2c(c(-c3ccc(Cl)cc3)c1)NC(=O)C2 (stereo not drawn) [Example #71, 5-(7-(4-chlorophenyl)-2-oxoindolin-5-yl)-6-methyl-3,6-dihydro-2H-1,3,4-thiadiazin-2-one]",
49.7 nM,9,"CC1(C)C(=O)Nc2c(Cl)cc(-c3cnc4c(c3)CC(=O)N4)cc21 [Example #85, 5-(7-chloro-3,3-dimethyl-2-oxoindolin-5-yl)-1,3-dihydro-2H-pyrrolo[2,3-b]pyridin-2-one]",
28.2 nM,3.9,"O=C1CCCc2cc(C3=NNC(=O)SC3)ccc2N1 [Example #72, 5-(2-oxo-2,3,4,5-tetrahydro-1H-benzo[b]azepin-7-yl)-3,6-dihydro-2H-1,3,4-thiadiazin-2-one]",
14.2 nM,10,"CC1SC(=O)NN=C1c1cc(F)c2c(c1)CC(=O)N2 (stereo not drawn) [Example #57, 5-(7-fluoro-2-oxoindolin-5-yl)-6-methyl-3,6-dihydro-2H-1,3,4-thiadiazin-2-one]","Contractility ([5]; 100 μM CaCl2 with 30 μM Ex #57 (3.11 without)): 40.17; Contractility amplitude ([5]; 100 μM IBMX with 30 μM Example #57): 267.6; Contractility ([5]; 1000 μM CaCl2 with 30 μM Ex #57 (56.31 without)): 182.67; Contractility ([5]; 10,000 μM CaCl2 with 30 μM Ex #57 (228.61 without)): 284.27; EC50 ([5]; Homo sapiens, Cardiomyocyte, without Ex #57 1286 μM, read-out: calcium concentration EC50 with Ex #57): 821000 nM"
7.4 nM,,"CC1CC(=O)NN=C1c1cc(F)c2c(c1)C(C)(C)C(=O)N2 (stereo not drawn) [Example #26, 7-fluoro-3,3-dimethyl-5-(4-methyl-6-oxo-1,4,5,6-tetrahydropyridazin-3-yl)indolin-2-one]",reduced NT-proBNP levels (NT-proBNP; 0.03 mg/kg): 49%; reduced NT-proBNP levels (NT-proBNP; 0.1 mg/kg): 62%

# — US20240308973A1, “PHOSPHODIESTERASE 3 (PDE3) INHIBITORS” (Zoetis Services LLC, priority 2023, published 2024)
